Laboratory results reported in article PMC4277498 (Cell reports, 2014).

What was measured:
[1] = system: gpr126 mutant zebrafish; details: forskolin-induced cAMP elevation, ref Monk et al., 2009; cited from earlier work
[2] = system: β-adrenergic receptor endogenously expressed in COS-7 cells; details: COS-7 with endogenous β-adrenergic receptor

Row | SMILES | reversal of peripheral myelination phenotype [1] | dynamic mass redistribution response (EPIC) [2]
1 | C=C[C@@]1(C)CC(=O)[C@]2(O)[C@@]3(C)[C@@H](O)CCC(C)(C)[C@@H]3[C@H](O)[C@H](OC(C)=O)[C@@]2(C)O1 [forskolin] | reversible | 
2 | CC(C)NCC(O)c1ccc(O)c(O)c1 (centres unmarked) [isoprenaline] |  | concentration-dependent cellular responses
